Tests used:
pigweed [1] = assay: Test A postemergence; format: in vivo, Amaranthus retroflexus; details: 0 to 100 scale (0 no effect, 100 complete control), approx. 10 d
Procedure, shortened: (§1)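 Pre- and postemergence spray tests in a loam soil–sand mixture: seeded soil received a directed spray, while established seedlings 2–10 cm high at the one- to two-leaf stage were treated over the top. Compounds were carried in non-phytotoxic solvent with surfactant.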

foxtail, giant [2] = assay: Test C postemergence; format: in vivo, Setaria faberii
Procedure, shortened: (§2)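 Test chemicals in a non-phytotoxic solvent mixture with surfactant were applied to pots of plants at 2 to 18 cm (1- to 4-leaf stage) for postemergence treatment, grown in a peat-based medium with vermiculite, starter nutrients and dolomitic limestone. Preemergence treatment was to seeds freshly planted in loam soil mixed with sand.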

wheat = assay: Test A postemergence; format: in vivo, Triticum aestivum; details: 0 to 100 scale (0 no effect, 100 complete control), approx. 10 d
Procedure, shortened: as §1

pigweed [3] = assay: Test C postemergence; format: in vivo, Amaranthus retroflexus
Procedure, shortened: as §2

foxtail, giant [4] = assay: Test A postemergence; format: in vivo, Setaria faberii; details: 0 to 100 scale (0 no effect, 100 complete control), approx. 10 d
Procedure, shortened: as §1

barnyardgrass [5] = assay: Test B flooded paddy test; format: in vivo, Echinochloa crus-galli; details: 250 g ai/ha, applied to paddy water at 2-leaf stage, visual rating after 13 to 15 d, scale 0 (no effect) to 100 (complete control)
Procedure, shortened: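 Pots were flooded to 3 cm above the soil at treatment, and compounds were applied directly into the paddy water. That depth was held throughout. After 13 to 15 d in a greenhouse, plants were rated visually against untreated controls.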

velvetleaf = assay: Test C postemergence; format: in vivo, Abutilon theophrasti
Procedure, shortened: as §2

kochia = assay: Test C postemergence; format: in vivo, Kochia scoparia
Procedure, shortened: as §2

oilseed rape = assay: Test C postemergence; format: in vivo, Brassica napus
Procedure, shortened: as §2

johnsongrass = assay: Test C postemergence; format: in vivo, Sorghum halepense
Procedure, shortened: as §2

blackgrass = assay: Test C postemergence; format: in vivo, Alopecurus myosuroides
Procedure, shortened: as §2

barnyardgrass [6] = assay: Test C postemergence; format: in vivo, Echinochloa crus-galli
Procedure, shortened: as §2

galium = assay: Test C postemergence; format: in vivo, Galium aparine
Procedure, shortened: as §2

lambsquarters = assay: Test C postemergence; format: in vivo, Chenopodium album
Procedure, shortened: as §2

corn = assay: Test C postemergence; format: in vivo, Zea mays
Procedure, shortened: as §2

ragweed = assay: Test C postemergence; format: in vivo, Ambrosia elatior
Procedure, shortened: as §2

barnyardgrass [7] = assay: Test A preemergence; format: in vivo, Echinochloa crus-galli; details: 0 to 100 scale (0 no effect, 100 complete control)
Procedure, shortened: as §1

crabgrass, large = assay: Test C postemergence; format: in vivo, Digitaria sanguinalis
Procedure, shortened: as §2

waterhemp = assay: Test C postemergence; format: in vivo, Amaranthus rudis
Procedure, shortened: as §2

FC(F)(F)COc1nc(-c2ccccc2)nn1Cc1ccnc(C(F)(F)F)c1 [Compound 24]
Plant response rating, Pigweed (pigweed [1]; 125 g ai/ha): 90 | Plant response rating, Pigweed (pigweed [1]; 500 g ai/ha): 100 | Plant response rating (scale of 0 to 100 where 0 is no effect and 100 is complete control) (foxtail, giant [2]; 31 g ai/ha): 15 | Plant response rating (scale of 0 to 100 where 0 is no effect and 100 is complete control) (foxtail, giant [2]; 62 g ai/ha): 20 | Plant response rating (scale of 0 to 100 where 0 is no effect and 100 is complete control) (foxtail, giant [2]; 125 g ai/ha): 20 | Plant response rating (scale of 0 to 100 where 0 is no effect and 100 is complete control) (foxtail, giant [2]; 250 g ai/ha): 20 | Plant response rating, Wheat (wheat; 125 g ai/ha): 20 | Plant response rating, Wheat (wheat; 500 g ai/ha): 30 | Plant response rating (scale of 0 to 100 where 0 is no effect and 100 is complete control) (pigweed [3]; 31 g ai/ha): 100 | Plant response rating (scale of 0 to 100 where 0 is no effect and 100 is complete control) (pigweed [3]; 62 g ai/ha): 100 | Plant response rating (scale of 0 to 100 where 0 is no effect and 100 is complete control) (pigweed [3]; 125 g ai/ha): 100 | Plant response rating (scale of 0 to 100 where 0 is no effect and 100 is complete control) (pigweed [3]; 250 g ai/ha): 100 | Plant response rating, Foxtail, Giant (foxtail, giant [4]; 125 g ai/ha): 70 | Plant response rating, Foxtail, Giant (foxtail, giant [4]; 500 g ai/ha): 90 | Plant response rating, Barnyardgrass, Flood (barnyardgrass [5]): 30 | Plant response rating (scale of 0 to 100 where 0 is no effect and 100 is complete control) (velvetleaf; 31 g ai/ha): 60 | Plant response rating (scale of 0 to 100 where 0 is no effect and 100 is complete control) (velvetleaf; 62 g ai/ha): 55 | Plant response rating (scale of 0 to 100 where 0 is no effect and 100 is complete control) (velvetleaf; 125 g ai/ha): 60 | Plant response rating (scale of 0 to 100 where 0 is no effect and 100 is complete control) (velvetleaf; 250 g ai/ha): 60 | Plant response rating (scale of 0 to 100 where 0 is no effect and 100 is complete control) (kochia; 31 g ai/ha): 90 | Plant response rating (scale of 0 to 100 where 0 is no effect and 100 is complete control) (kochia; 62 g ai/ha): 90 | Plant response rating (scale of 0 to 100 where 0 is no effect and 100 is complete control) (kochia; 125 g ai/ha): 90 | Plant response rating (scale of 0 to 100 where 0 is no effect and 100 is complete control) (kochia; 250 g ai/ha): 90 | Plant response rating (scale of 0 to 100 where 0 is no effect and 100 is complete control) (oilseed rape; Oilsee Rape, 250 g ai/ha): 85 | Plant response rating (scale of 0 to 100 where 0 is no effect and 100 is complete control) (oilseed rape; Oilseed Rape, 31 g ai/ha): 50 | Plant response rating (scale of 0 to 100 where 0 is no effect and 100 is complete control) (oilseed rape; Oilseed Rape, 62 g ai/ha): 80 | Plant response rating (scale of 0 to 100 where 0 is no effect and 100 is complete control) (oilseed rape; Oilseed Rape, 125 g ai/ha): 85 | Plant response rating (scale of 0 to 100 where 0 is no effect and 100 is complete control) (johnsongrass; 31 g ai/ha): 10 | Plant response rating (scale of 0 to 100 where 0 is no effect and 100 is complete control) (johnsongrass; 62 g ai/ha): 20 | Plant response rating (scale of 0 to 100 where 0 is no effect and 100 is complete control) (johnsongrass; 125 g ai/ha): 10 | Plant response rating (scale of 0 to 100 where 0 is no effect and 100 is complete control) (johnsongrass; 250 g ai/ha): 20 | Plant response rating (scale of 0 to 100 where 0 is no effect and 100 is complete control) (blackgrass; 31 g ai/ha): 5 | Plant response rating (scale of 0 to 100 where 0 is no effect and 100 is complete control) (blackgrass; 62 g ai/ha): 5 | Plant response rating (scale of 0 to 100 where 0 is no effect and 100 is complete control) (blackgrass; 125 g ai/ha): 35 | Plant response rating (scale of 0 to 100 where 0 is no effect and 100 is complete control) (blackgrass; 250 g ai/ha): 35 | Plant response rating (scale of 0 to 100 where 0 is no effect and 100 is complete control) (barnyardgrass [6]; 31 g ai/ha): 25 | Plant response rating (scale of 0 to 100 where 0 is no effect and 100 is complete control) (barnyardgrass [6]; 62 g ai/ha): 30 | Plant response rating (scale of 0 to 100 where 0 is no effect and 100 is complete control) (barnyardgrass [6]; 125 g ai/ha): 35 | Plant response rating (scale of 0 to 100 where 0 is no effect and 100 is complete control) (barnyardgrass [6]; 250 g ai/ha): 35 | Plant response rating (scale of 0 to 100 where 0 is no effect and 100 is complete control) (galium; 31 g ai/ha): 70 | Plant response rating (scale of 0 to 100 where 0 is no effect and 100 is complete control) (galium; 62 g ai/ha): 80 | Plant response rating (scale of 0 to 100 where 0 is no effect and 100 is complete control) (galium; 125 g ai/ha): 80 | Plant response rating (scale of 0 to 100 where 0 is no effect and 100 is complete control) (galium; 250 g ai/ha): 95 | Plant response rating (scale of 0 to 100 where 0 is no effect and 100 is complete control) (lambsquarters; 31 g ai/ha): 100 | Plant response rating (scale of 0 to 100 where 0 is no effect and 100 is complete control) (lambsquarters; 62 g ai/ha): 100 | Plant response rating (scale of 0 to 100 where 0 is no effect and 100 is complete control) (lambsquarters; 125 g ai/ha): 100 | Plant response rating (scale of 0 to 100 where 0 is no effect and 100 is complete control) (lambsquarters; 250 g ai/ha): 100 | Plant response rating (scale of 0 to 100 where 0 is no effect and 100 is complete control) (corn; 31 g ai/ha): 20 | Plant response rating (scale of 0 to 100 where 0 is no effect and 100 is complete control) (corn; 62 g ai/ha): 20 | Plant response rating (scale of 0 to 100 where 0 is no effect and 100 is complete control) (corn; 125 g ai/ha): 25 | Plant response rating (scale of 0 to 100 where 0 is no effect and 100 is complete control) (corn; 250 g ai/ha): 30 | Plant response rating (scale of 0 to 100 where 0 is no effect and 100 is complete control) (ragweed; 31 g ai/ha): 65 | Plant response rating (scale of 0 to 100 where 0 is no effect and 100 is complete control) (ragweed; 62 g ai/ha): 75 | Plant response rating (scale of 0 to 100 where 0 is no effect and 100 is complete control) (ragweed; 125 g ai/ha): 75 | Plant response rating (scale of 0 to 100 where 0 is no effect and 100 is complete control) (ragweed; 250 g ai/ha): 75 | Plant response rating, Barnyardgrass (barnyardgrass [7]; 125 g ai/ha): 50 | Plant response rating, Barnyardgrass (barnyardgrass [7]; 500 g ai/ha, approx. 10 d): 90 | Plant response rating (scale of 0 to 100 where 0 is no effect and 100 is complete control) (crabgrass, large; 31 g ai/ha): 15 | Plant response rating (scale of 0 to 100 where 0 is no effect and 100 is complete control) (crabgrass, large; 62 g ai/ha): 10 | Plant response rating (scale of 0 to 100 where 0 is no effect and 100 is complete control) (crabgrass, large; 125 g ai/ha): 25 | Plant response rating (scale of 0 to 100 where 0 is no effect and 100 is complete control) (crabgrass, large; 250 g ai/ha): 35 | Plant response rating (scale of 0 to 100 where 0 is no effect and 100 is complete control) (waterhemp; 31 g ai/ha): 100 | Plant response rating (scale of 0 to 100 where 0 is no effect and 100 is complete control) (waterhemp; 62 g ai/ha): 98 | Plant response rating (scale of 0 to 100 where 0 is no effect and 100 is complete control) (waterhemp; 125 g ai/ha): 98 | Plant response rating (scale of 0 to 100 where 0 is no effect and 100 is complete control) (waterhemp; 250 g ai/ha): 98

— patent publication US10681909B2, “Herbicidal triazoles” (FMC Corporation, priority 2014, dated 2020)
